Assay results from PMC5884906, “Single Administration of HBK-15—a Triple 5-HT1A, 5-HT7, and 5-HT3 Receptor Antagonist—Reverses Depressive-Like Behaviors in Mouse Model of Depression Induced by Corticosterone” (Molecular Neurobiology, 2017).
Values joined by “and” are separate entries in the source; they are usually repeats but may differ in a detail not shown here. Identical values can stand only once.

How the values were obtained:
[1] = test system: NGF level in the hippocampus; assay: NGF level in the hippocampus (ELISA), chronic administration; format: in vivo, mice; details: for effect on corticosterone-induced decrease in NGF level in the hippocampus: 21 days
Protocol: (§1) The doses and route of administration of the studied compounds were based on our previous experiments. […] Mice were injected with corticosterone (s.c., 20 mg/kg) at random times during the light phase for 21 consecutive days (Fig. 1b). The dose and route of administration of corticosterone was based on studies performed by Zhao and colleagues. Thirty minutes before, corticosterone injection mice were given (i.p.) saline, HBK-14 (1.25 or 2.5 mg/kg), HBK-15 (0.625 or 1.25 mg/kg), or fluoxetine (10 mg/kg) (Fig. 1b). Control mice received (i.p.) saline and 30 min later saline containing 0.1% dimethyl sulfoxide (DMSO) and 0.1% Tween-80 (s.c.). The experimental groups consisted of eight randomly selected animals. After the end of the procedure, animals were tested in the sucrose preference test, forced swim test, elevated plus maze test, and spontaneous locomotor activity test. Following behavioral testing, rodents were scarified and their hippocampi collected for biochemical analysis. After the behavioral assessments, mice were sacrificed, and their brains were rapidly removed and chilled in an ice-cold saline solution. The hippocampi were dissected on a cold plate, frozen, and stored at −80 °C until assay. On the day of experiments, tissues were thawed on ice and homogenized (1:9 w/v) in phosphate-buffered saline (4 °C) and protease inhibitor cocktail was added. The 10% homogenates were prepared and homogenized for 30 s with TissueRuptor homogenizer. The homogenized tissues were centrifuged (2500×g at 4 °C for 20 min), and the supernatants were collected for further assays. Protein concentrations of BDNF and NGF in homogenates from hippocampi were determined using the enzyme-linked immunosorbent assay (ELISA) kits (BDNF: DZE201020014, SunRed Biotechnology Company; NGF: MBS825100, MyBioSource) according to the manufacturer’s instructions. […] The samples were analyzed in duplicates, and the mean concentrations were calculated. […] The intensity of the color was read at 450 nm. Absorbance was measured in a multifunction plate reader (POLARstar Omega, BMG Labtech, Germany). […]

[2] = test system: BDNF level in the hippocampus; assay: BDNF level in the hippocampus (ELISA), single administration; format: in vivo, mice
Protocol: Mice were injected with corticosterone (s.c., 20 mg/kg) at random times during the light phase for consecutive 21 days (Fig. 1c). The dose and route of administration of corticosterone were based on studies performed by Zhao and colleagues. After the end of the procedure, next day 30 min before the test, corticosterone-treated mice were given (i.p.) saline, HBK-15 (1.25 mg/kg), fluoxetine (10 mg/kg), or ketamine (1 mg/kg) (Fig. 1c). Control mice received (i.p.) saline. The experimental groups consisted of eight randomly selected animals. We chose the dose of HBK-15 that was active in the chronic experiments (i.e., 1.25 mg/kg). The dose of ketamine was based on the studies performed by Pazini and colleagues. Animals were tested in the forced swim test and spontaneous locomotor activity test. After behavioral testing, mice were scarified and their hippocampi collected for biochemical analysis.
After the behavioral assessments, mice were sacrificed, and their brains were rapidly removed and chilled in an ice-cold saline solution. The hippocampi were dissected on a cold plate, frozen, and stored at −80 °C until assay. On the day of experiments, tissues were thawed on ice and homogenized (1:9 w/v) in phosphate-buffered saline (4 °C) and protease inhibitor cocktail was added. The 10% homogenates were prepared and homogenized for 30 s with TissueRuptor homogenizer. The homogenized tissues were centrifuged (2500×g at 4 °C for 20 min), and the supernatants were collected for further assays.
Protein concentrations of BDNF and NGF in homogenates from hippocampi were determined using the enzyme-linked immunosorbent assay (ELISA) kits (BDNF: DZE201020014, SunRed Biotechnology Company; NGF: MBS825100, MyBioSource) according to the manufacturer’s instructions. […] The samples were analyzed in duplicates, and the mean concentrations were calculated. […] The intensity of the color was read at 450 nm. Absorbance was measured in a multifunction plate reader (POLARstar Omega, BMG Labtech, Germany). […]

[3] = test system: BDNF level in the hippocampus; assay: BDNF level in the hippocampus (ELISA), chronic administration; format: in vivo, mice; details: for effect on corticosterone-induced decrease in BDNF level in the hippocampus: 21 days
Protocol: as §1

[4] = test system: corticosterone-treated mice; assay: forced swim test, chronic administration, corticosterone model; format: in vivo; details: for effect on corticosterone-induced increase in immobility: 21 days
Protocol: The dose and route of administration of corticosterone was based on studies performed by Zhao and colleagues. Thirty minutes before, corticosterone injection mice were given (i.p.) saline, HBK-14 (1.25 or 2.5 mg/kg), HBK-15 (0.625 or 1.25 mg/kg), or fluoxetine (10 mg/kg) (Fig. 1b). Control mice received (i.p.) saline and 30 min later saline containing 0.1% dimethyl sulfoxide (DMSO) and 0.1% Tween-80 (s.c.). The experimental groups consisted of eight randomly selected animals. After the end of the procedure, animals were tested in the sucrose preference test, forced swim test, elevated plus maze test, and spontaneous locomotor activity test. Following behavioral testing, rodents were scarified and their hippocampi collected for biochemical analysis. Forced swim test was performed according to the method described by Porsolt and colleagues and previously described. Mice were placed individually for 6 min in glass cylinders (height 25 cm, diameter 10 cm) containing […] (23–25 °C). The total time of immobility was recorded during the final 4 min of the test. The experiments were recorded and scored using aLab.io software by a trained observer blind to the treatments.

[5] = corticosterone 20 mg/kg s.c. 21 days + saline

COc1ccccc1N1CCN(CCOCCOc2c(C)cccc2Cl)CC1.Cl [HBK-15, 1-[(2-chloro-6-methylphenoxy)ethoxyethyl]-4-(2-methoxyphenyl)piperazine hydrochloride]
effect on corticosterone-induced decrease in NGF level in the hippocampus ([1]; 1.25 mg/kg i.p.): protected corticosterone-treated mice from the decrease in the NGF level | effect on corticosterone-induced decrease in BDNF level in the hippocampus ([2]; single 1.25 mg/kg i.p.): reversed the decrease in BDNF level | effect on corticosterone-induced decrease in BDNF level in the hippocampus ([3]; 1.25 mg/kg i.p.): protected corticosterone-treated mice from the decrease in the BDNF level | effect on corticosterone-induced increase in immobility ([4]; 1.25 mg/kg i.p.): prevented an increase in immobility

CNCCC(Oc1ccc(C(F)(F)F)cc1)c1ccccc1 (stereo not drawn) [fluoxetine, reference compound]
effect on corticosterone-induced decrease in NGF level in the hippocampus ([1]; 10 mg/kg i.p.): protected corticosterone-treated mice from the decrease in the NGF level | effect on corticosterone-induced decrease in BDNF level in the hippocampus ([3]; 10 mg/kg i.p.): protected corticosterone-treated mice from the decrease in the BDNF level | effect on corticosterone-induced increase in immobility ([4]; 10 mg/kg i.p.): prevented an increase in immobility

C[C@]12C[C@H](O)[C@H]3[C@@H](CCC4=CC(=O)CC[C@@]43C)[C@@H]1CC[C@@H]2C(=O)CO [corticosterone]
decrease in NGF level in the hippocampus vs control [1, 5]: 35% | decrease in BDNF level in the hippocampus vs control ([2]; acute experiment, corticosterone 20 mg/kg s.c. 21 days + saline): 47.0% | decrease in BDNF level in the hippocampus vs control [3, 5]: 44.0% | increase in immobility vs control [4, 5]: 14% and 21%

COc1ccccc1N1CCN(CCOCCOc2c(C)cccc2C)CC1.Cl [HBK-14, 1-[(2,6-Dimethylphenoxy)ethoxyethyl]-4-(2-methoxyphenyl)piperazine hydrochloride]
effect on corticosterone-induced increase in immobility ([4]; 1.25 or 2.5 mg/kg i.p.): inactive
